In one assay the target is Yeast α-glucosidase. As to the kind of experiment: In vitro α-glucosidase inhibitory activity assay. The assay is classed as biochemical. Particulars: for IC50: mean ± SD of triplicate experiments; for α-glucosidase inhibitory activity (in words): under the tested concentration. The protocol:
Enzyme inhibition studies were carried out spectrophotometrically in a 96-well micro-plate reader using a procedure reported by Li et al..

Assay [1] addresses T1, PTP1B (Homo sapiens, UniProt P18031).
T1 sequence (P18031 1-322): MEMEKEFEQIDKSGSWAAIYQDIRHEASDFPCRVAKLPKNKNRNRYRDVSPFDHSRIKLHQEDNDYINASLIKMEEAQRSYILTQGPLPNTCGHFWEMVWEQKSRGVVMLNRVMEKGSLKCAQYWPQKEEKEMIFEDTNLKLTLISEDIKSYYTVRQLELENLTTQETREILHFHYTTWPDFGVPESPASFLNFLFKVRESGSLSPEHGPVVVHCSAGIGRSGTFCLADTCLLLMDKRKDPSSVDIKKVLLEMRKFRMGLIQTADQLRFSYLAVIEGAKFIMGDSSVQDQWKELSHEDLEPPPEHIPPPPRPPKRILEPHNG
As to the kind of experiment: Enzyme kinetic analysis towards PTP1B (Lineweaver-Burk plot and secondary plots). The assay is classed as biochemical. The protocol: The inhibition constant (Ki) and inhibition mode for the inhibition of PTP1B was calculated by the Lineweaver-Burk plot and its secondary plot of the slope and the y-intercept of compounds [49, 50]. […] Graphs were generated using SigmaPlot 12.0 (Systat Software Inc., San Jose, CA, USA).

Assay [2] has as its target T2, truncated form of human recombinant PTP1B (amino acid 1-322) (Homo sapiens, UniProt P18031).
T2 sequence (P18031 1-322): T1 sequence (P18031 1-322)
The experiment in a line: In vitro PTP1B inhibitory activity assay (pNPP substrate). Particulars: for IC50: mean ± SD of triplicate experiments, pNPP substrate.
Procedure: A truncated form of human recombinant PTP1B (amino acid 1-322) was purchased from Enzo Life Sciences (Farmingdale, NY, USA) and dithiothreitol (DTT) was purchased from Bio-Rad Laboratories (Hercules, CA, USA). All other chemicals and solvents were purchased from E. Merck, Fluka, and Sigma-Aldrich, unless otherwise stated.
The inhibitory activity of isolated compounds against truncated form of human recombinant PTP1B was evaluated using pNPP as a substrate [48]. The amount of p-nitrophenyl produced after enzymatic dephosphorylation of pNPP was estimated by measuring the absorbance at 405 nm using a micro-plate spectrophotometer (Molecular Devices, Sunnyvale, CA, USA).

Assay [3] concerns insulin-resistant HepG2 cells. Particulars: cited from earlier work.
Assay [4] deals with streptozotocin-induced Sprague-Dawley rats. Particulars: fucosterol from Pelvetia siliquosa; cited from earlier work.
In assay [5] the test system is PTP1B. Particulars: in vitro; cited from earlier work.

Consider 22 compounds from PMC6562952, “Experimental and Computational Study to Reveal the Potential of Non-Polar Constituents from Hizikia fusiformis as Dual Protein Tyrosine Phosphatase 1B and α-Glucosidase Inhibitors” (Marine Drugs, 2019).

The structures appear in SMILES notation. Like-named read-outs stand apart in the source and are kept apart here.

In general, IC50 refers to the concentration needed to halve the response being measured. Compound `CC1(C)[C@@H](O)CC[C@]2(C)[C@H]3C(=O)C=C4[C@H]5C[C@@](C)(C(=O)O)CC[C@]5(C)CC[C@@]4(C)[C@]3(C)CC[C@@H]12` [Compound 22, 18α-glycyrrhetinic acid] yielded a half-maximal inhibitory concentration (IC50) against Yeast α-glucosidase of 113.3 ± 0.7 µM. Besides, at PTP1B [1], the “Enzyme Kinetics Inhibition Type (PTP1B)” value is “Competitive”.
For `COc1cc(C(O)C(CO)Oc2ccc(CCCO)cc2O)ccc1O` (stereo not drawn) [Compound 15, 1-(4-hydroxy-3-methoxyphenyl)-2-[2-hydroxy-4-(3-hydroxypropyl)phenoxy]-1,3-propanediol], the half-maximal inhibitory concentration (IC50) is more than 400 µM in assay [2] (IC50 PTP1B) and more than 250 µM at Yeast α-glucosidase.
For `C=CC(O)(CCC(C)C1CCC2C3CC=C4CC(O)CCC4(C)C3CCC12C)C(C)C` (stereo not drawn) [Compound 4, 24R and 24S-saringosterol], the half-maximal inhibitory concentration (IC50) (in assay [2] (IC50 PTP1B); on Yeast α-glucosidase) was more than 150 µM each time. Further, the “PTP1B inhibitory activity (in words)” value in assay [2] (under the tested concentration) is “no activity”.
For `COC(=O)C1OC(OC2CCC3(C)C(CCC4(C)C3C(=O)C=C3C5CC(C)(C(=O)O)CCC5(C)CCC34C)C2(C)C)C(OC2OC(C(=O)O)C(O)C(O)C2O)C(O)C1O` [Compound 19, 18β-glycyrrhetinic acid-3-O-β-D-glucuronopyranosyl-1(→2)-β-D-glucuronide-6’-methyl ester], in assay [2] (ratio of IC50 versus glycyrrhizin (18)), the “times stronger PTP1B inhibition than compound 18” value is reported as 2.2 times. Moreover, on Yeast α-glucosidase, the IC50 was more than 150 µM and the “α-glucosidase inhibitory activity (in words)” value is on record as “no activity”.
As for `NCCc1ccc(O)cc1` [Compound 21, tyramine], the half-inhibitory concentration (IC50) came to 188 ± 3.21 µM in assay [2] (IC50 PTP1B) and 273 ± 5.65 µM at Yeast α-glucosidase.
Turning to `COc1cc([C@H]2Oc3c(O)cc(CCCO)cc3[C@@H]2CO)ccc1O` [Compound 14, cedrusin], the IC50 in assay [2] (IC50 PTP1B) amounted to 174 ± 5.44 µM; against Yeast α-glucosidase, 134 ± 3.86 µM.
As for `CCC/C=C\CCCCCCCCCCC(=O)O` [Compound 1, (Z)-hexadec-12-enoic acid], the values for the concentration for half-maximal inhibition (IC50) (in assay [2] (IC50 PTP1B); on Yeast α-glucosidase) were 6.59 ± 0.09 µM and 48.1 ± 3.37 µM, respectively.
In the case of `CC1(C)[C@@H](O[C@H]2O[C@H](C(=O)O)[C@@H](O)[C@H](O)[C@H]2O[C@@H]2O[C@H](C(=O)O)[C@@H](O)[C@H](O)[C@H]2O)CC[C@]2(C)[C@H]3C(=O)C=C4[C@@H]5C[C@@](C)(C(=O)O)CC[C@]5(C)CC[C@@]4(C)[C@]3(C)CC[C@@H]12` [Compound 18, 18β-glycyrrhetinic acid-3-O-β-D-glucuronopyranosyl-1(→2)-β-D-glucuronide], the half-maximal inhibitory concentration (IC50) was 110.3 ± 0.39 µM in assay [2] (IC50 PTP1B) and more than 150 µM against Yeast α-glucosidase. Further, the “α-glucosidase inhibitory activity (in words)” value with Yeast α-glucosidase was “no activity”.
As to `CC(C)C1(CC[C@@H](C)[C@H]2CCC3C4CC=C5C[C@@H](O)CC[C@]5(C)C4CC[C@@]32C)OC1C` (mixture of isomers) [Compound 6, 24R,28R and 24S,28R-epoxy-24-ethylcholesterol], the IC50 in assay [2] (IC50 PTP1B) is 16.7 ± 0.36 µM; on Yeast α-glucosidase it was more than 150 µM. Further, the “times stronger PTP1B inhibitory activity than 5” value in assay [2] (ratio of IC50 versus fucosterol (5)) was 3 times. Also, at PTP1B [1], the “Enzyme Kinetics Inhibition Type (PTP1B)” value is recorded as “Non-competitive”.
In the case of `CCCCCCCC/C=C\CCCCCCCC(=O)O` [Compound 3, (Z)-octaec-9-enoic acid], the results for the IC50 (in assay [2] (IC50 PTP1B); against Yeast α-glucosidase) were 13.7 ± 0.49 µM and 113 ± 2.47 µM, respectively.
On to `CC1(C)C2CC[C@]3(C)[C@H](C(=O)C=C4[C@@H]5C[C@@](C)(C(=O)O)CC[C@]5(C)CC[C@]43C)[C@@]2(C)CC[C@@H]1O` (stereo partly drawn) [Compound 23, 18β-glycyrrhetinic acid], for which the 50% inhibitory concentration (IC50) against Yeast α-glucosidase stood at 129 ± 3.88 µM. For the same compound, the “Enzyme Kinetics Inhibition Type (PTP1B)” value on PTP1B [1] was “Competitive”.
Take `CCCCCCCCCCCCCCCC(=O)O` [Compound 2, palmitic acid]: the IC50 is 49.4 ± 1.39 µM in assay [2] (IC50 PTP1B) and 93.6 ± 3.68 µM against Yeast α-glucosidase.
On the same counts, the results for `OCC1OC(OCc2ccccc2)C(O)C(O)C1O` (stereo not drawn) [Compound 16, benzyl alcohol alloside] are more than 400 µM and more than 250 µM.
Regarding `CCCCCC\C=C/C=C\C=C/C=C\CCCCCC(=O)O` [Compound 9, (7Z,9Z,11Z,13Z)-icosa-7,9,11,13-tetraenoic acid], the IC50 in assay [2] (IC50 PTP1B) worked out at 10.7 ± 0.17 µM; at Yeast α-glucosidase, 34.9 ± 2.39 µM.
As for `CC(=O)C=C=C1C(C)(C)CC(OC(C)=O)CC1(C)O` [Compound 20, (3R)-4-[(2R,4S)-4-acetoxy-2-hydroxy-2,6,6-trimethylcyclohexylidene]but-3-en-2-one], the values for the concentration for half-maximal inhibition (IC50) (in assay [2] (IC50 PTP1B); against Yeast α-glucosidase) were 323.2 ± 0.84 µM and more than 250 µM, respectively.
The matching figures for `CC/C=C\C/C=C\C/C=C\CCCCCCC(=O)O` [Compound 7, (8Z,11Z,14Z)-heptadeca-8,11,14-trienoic acid]: 4.86 ± 1.36 µM and more than 200 µM.
Take `CC/C=C\C/C=C\C/C=C\C/C=C\CCCCC(=O)O` [Compound 10, (6Z,9Z,12Z,15Z)-octadeca-6,9,12,15-tetraenoic acid]: the IC50 in assay [2] (IC50 PTP1B) is 16.43 ± 0.07 µM; against Yeast α-glucosidase, more than 200 µM.
With `CCCC/C=C\C/C=C\C/C=C\CCCCCC(=O)O` [Compound 8, (7Z,10Z,13Z)-octadeca-7,10,13-trienoic acid], the IC50 is 13.58 ± 0.1 µM in assay [2] (IC50 PTP1B) and 112 ± 1.44 µM against Yeast α-glucosidase.
Turning to `C=C(COC(=O)CCCCCC(=O)OCC(O)COC(=O)CCC/C=C\C/C=C\C/C=C\CCCCCCCC)C(=O)O` (stereo not drawn) [Compound 13, 2-(7′-(2″-hydroxy-3″-((5Z,8Z,11Z)-icosatrienoyloxy)propoxy)-7′-oxoheptanoyl)oxymethylpropenoic acid], the IC50 in assay [2] (IC50 PTP1B) is 4.92 ± 0.01 µM; at Yeast α-glucosidase, more than 150 µM. At PTP1B [1], the “Enzyme Kinetics Inhibition Type (PTP1B)” value is reported as “Non-competitive”.
For the compound `CC1(C)CC2CC(C)(O2)/C1=C/C(=O)O` (stereo not drawn) [Compound 17, madhusic acid A], the IC50 in assay [2] (read-out: IC50 PTP1B) was more than 400 µM; against Yeast α-glucosidase, more than 300 µM.
Consider `C/C=C(\CC[C@@H](C)[C@H]1CC[C@H]2[C@@H]3CC=C4C[C@@H](O)CC[C@]4(C)[C@H]3CC[C@]12C)C(C)C` [Compound 5, fucosterol], for which the “effect on insulin resistance” value in assay [3] is “improved insulin resistance”. The anti-diabetic activity entry in assay [4] was “anti-diabetic activity”. Also, in the assay with PTP1B [5], the “PTP1B inhibition type (literature)” value is listed as “non-competitive”. Further, the IC50 is 50.6 ± 1.86 µM in assay [2] (IC50 PTP1B) and more than 150 µM against Yeast α-glucosidase. The “Enzyme Kinetics Inhibition Type (PTP1B)” value on PTP1B [1] was “non-competitive”.
Regarding `CC/C=C\C/C=C\C/C=C\CCCCCCC(=O)O` [Compound 12, (8Z,11Z,14Z)-heptadeca-8,11,14-trienoic acid], the 50% inhibitory concentration (IC50) in assay [2] (IC50 PTP1B) turned out to be 11.5 ± 0.52 µM; at Yeast α-glucosidase, 43.9 ± 0.77 µM.
